Experimental data reported in paper PMC8474116, “Discovery of Novel Acetamide-Based Heme Oxygenase-1 Inhibitors with Potent In Vitro Antiproliferative Activity” (Journal of Medicinal Chemistry, 2021).

How the values were obtained:
HO-1 [1] = assay: HO-1 protein expression by Western blot, A172; type: cell-based, human; details: A172, 10 μM, 48 h
Protocol: (§1) Proteins were extracted from total cell lysate, as previously described.[61] Briefly, cell lines were added to a buffer containing 20 mM Tris (pH 7.4), 2 mM EDTA, 0.5 mM EGTA, 50 mM mercaptoethanol, and […] sucrose supplemented with phosphatase and protease inhibitor cocktails (Roche Diagnostics, Monza, Italy). Subsequently, protein samples were sonicated twice for 20′ by using an ultrasonic probe, followed by centrifugation at 10 000g for 10 min at 4 °C. Sample proteins (30 μg) were diluted in 4X NuPage LDS sample buffer (Invitrogen, NP0007), heated at 80 °C for 5 min, and then separated on a Biorad Criterion XT 4–15% Bis–Tris gel (BIO-RAD) by electrophoresis and then transferred to a PVDF membrane (BIO-RAD). Blots were blocked using the Odyssey Blocking Buffer (LI-COR Biosciences) and probed with appropriate antibodies: HO-1 antibody (GeneTex GTX101147), goat polyclonal anti-VEGF (cat. no. sc-1836, Santa Cruz Biotechnology), and rabbit polyclonal anti-β-tubulin (cat n.sc-9104, Santa Cruz Biotechnology) and β-actin antibody (GeneTex GTX109639).
(§2) The secondary antibodies goat antirabbit (Odyssey, #926-32211; Odyssey #926-68021) and donkey antigoat IRDye 800CW (cat #926-32214; Li-Cor Biosciences) were used at 1:7000. Blots were scanned, and densitometric analysis was performed with the Odyssey Infrared Imaging System. Values were normalized to β-actin and to β-tubulin.

HO-1 [2] = assay: HO-1 protein expression by Western blot, U87MG; type: cell-based, human; details: 10 μM, 48 h
Protocol: as §1, §2

A549 cells = assay: MTT cell viability assay, A549; type: cell-based, human; details: 48 h, 10 μM
Protocol: (§3) Experiments were performed on human GBM cell lines U87MG (ATCCC number #HTB-14) and A172 (ATCCC #CRL-1620) on DU145 (ATCC HTB-81) and human lung adenocarcinoma A549 (ATCC CCL-185-LUC2). All cell lines were obtained from the American Type Culture Collection (ATCC, Rockville, MD). Cells were grown in Dulbecco’s modified Eagle’s medium (DMEM) supplemented with 10% of heat-inactivated fetal bovine serum (FBS), 100 U/mL of penicillin, and 100 μg/mL of streptomycin (Sigma-Aldrich, Steinheim, Germany). Cells were incubated at 37 °C in a humidified atmosphere with 5% CO2.
(§4) The effect of selected compounds 7i and 7l–p on cell viability was assessed by performing an MTT assay. Cells were seeded into 96-well plates at a density of 7 × 10^3 cells/well in 100 μL of culture medium. After 24 h, cells were treated with selected compounds at three different concentrations (1 μM, 10 μM, and 50 μM) for 48 h. Following treatments, 0.5 mg/mL of 3-[4,5-dimethylthiazol-2-yl]-2,5-diphenyltetrazolium bromide (MTT) (Sigma-Aldrich) was added to each well and incubated for 4 h at 37 °C. Finally, dimethyl-sulfoxide (DMSO) was used to dissolve formazan salts, and absorbance was measured at 570 nm in a microplate reader (Biotek Synergy-HT). Eight replicate wells were used for each group.

DU145 cells = assay: MTT cell viability assay, DU145; type: cell-based; details: 48 h, 1 μM and 10 μM
Protocol: as §3, §4

[3] = Bidirectional permeability (Caco-2); type: in vitro ADME; details: human
human CYP2D6 = biological target: T1, human CYP2D6 (Homo sapiens, UniProt P10635); assay: CYP2D6 inhibition (Eurofins); type: in vitro ADME
T1 construct: Eurofins Scientific (contract assay) 1338
T1 sequence (P10635 whole entry): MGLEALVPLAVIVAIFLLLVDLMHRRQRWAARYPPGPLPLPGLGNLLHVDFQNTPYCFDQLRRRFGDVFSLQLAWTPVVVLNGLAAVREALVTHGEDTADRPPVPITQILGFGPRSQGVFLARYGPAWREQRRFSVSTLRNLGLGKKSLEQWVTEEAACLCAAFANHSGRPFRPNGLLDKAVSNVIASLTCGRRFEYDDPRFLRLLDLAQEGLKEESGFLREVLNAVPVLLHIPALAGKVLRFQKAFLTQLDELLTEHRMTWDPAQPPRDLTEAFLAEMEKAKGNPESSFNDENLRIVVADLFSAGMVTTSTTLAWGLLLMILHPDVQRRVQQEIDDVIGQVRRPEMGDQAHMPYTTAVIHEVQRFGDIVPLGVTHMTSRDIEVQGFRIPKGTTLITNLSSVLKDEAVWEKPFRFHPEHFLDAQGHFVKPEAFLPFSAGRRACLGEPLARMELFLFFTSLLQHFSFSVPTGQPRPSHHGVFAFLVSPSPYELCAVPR
From the text: (§5) In vitro ADMET testing has been performed at Eurofins Scientific.

U87MG cells = assay: Wound-healing assay, U87MG; type: cell-based, human; details: 10 μM, vs control at 24 and 48 h
Protocol: U87MG cells grown to confluence in 6-well dishes (5 × 10^4 cells/well) were scratched with a 200 μL pipette tip. Cells were cultured in a 1% serum medium with or without 10 μM of 7l. Quantitative assessment of the wound area was performed under an inverted microscope, as previously described.[63] The distance that the advancing cells had moved into the wound area was measured after 24 and 48 h. The migration was calculated as the average number of cells observed in three random of high-power wounded fields/per well in duplicate wells and expressed in percentage of control (% of control).

H5V cells = assay: Tube formation assay, H5V endothelial cells with U87MG conditioned medium; type: cell-based, murine; details: H5V cells with CM2, medium from U87MG cultured with 10 μM, 48 h
Protocol: Subconfluent U87MG cell cultures were placed in media supplemented with 1% FBS (representing the conditioned medium 1 (CM1) or control) or containing 10 μM of 7l molecule (representing the conditioned medium 2 (CM2)) and incubated at 37 °C for 48 h. Subsequently, the CMs were collected and centrifuged at 2000 rpm for 5 min, and the supernatants were frozen at −80 °C until use. GeltrexTM reduced growth factor basement membrane matrix (Invitrogen) was thawed at 4 °C overnight before use. GeltrexTM matrix was added to a 24-well plate (95 μL/well) and then incubated at 37 °C for 30 min to allow polymerization. Murine microvascular endothelial cells (H5V) were starved overnight in the growth medium, and then the cells were seeded onto the layer of GeltrexTM matrix and cultured with 200 μL of CM1 and CM2 at 37 °C for 48 h. Three randomly selected fields of view were captured with a digital camera (Canon) connected to an inverted microscope (Axio Observer A1; Carl Zeiss, Göttingen, Germany). Tube numbers per field were calculated as the percentage of control.

HO = HO enzymatic activity in U87MG cell line (cell lysate, bilirubin formation); type: cell-based, human; details: U87MG treated with 10 μM
Protocol: U87MG cells were incubated for 24 h in the presence or absence of 10 μM of compound 7l. Total HO activity in the cell lysate was determined by measuring the bilirubin formation using the difference in absorbance at 464–530 nm.[2] Reaction mixtures (500 μL) consisted of 20 mM of Tris–HCl, pH 7.4, 1 mg/mL of cell lysate, 0.5–2 mg/mL of biliverdin reductase, 1 mM of NADPH, 2 mM of glucose 6-phosphate (G6P), 1 U of G6P dehydrogenase, 25 μM of hemin, and 10 μL of DMSO. Incubations were carried out for 60 min at 37 °C in a circulating water bath in the dark. Reactions were stopped by adding 1 volume of chloroform. After recovering the chloroform phase, the amount of bilirubin formed was measured with a double-beam spectrophotometer as OD464–530 nm (extinction coefficient, 40 mM/cm for bilirubin). One unit of the enzyme was defined as the amount of enzyme catalyzing the formation of 1 nmol of bilirubin/mg protein/h.

hERG potassium channel = biological target: T2, hERG potassium channel (Homo sapiens, UniProt Q12809); assay: hERG human potassium ion channel binding (Eurofins)
T2 construct: Eurofins Scientific (contract assay) 4094
T2 sequence (Q12809 whole entry): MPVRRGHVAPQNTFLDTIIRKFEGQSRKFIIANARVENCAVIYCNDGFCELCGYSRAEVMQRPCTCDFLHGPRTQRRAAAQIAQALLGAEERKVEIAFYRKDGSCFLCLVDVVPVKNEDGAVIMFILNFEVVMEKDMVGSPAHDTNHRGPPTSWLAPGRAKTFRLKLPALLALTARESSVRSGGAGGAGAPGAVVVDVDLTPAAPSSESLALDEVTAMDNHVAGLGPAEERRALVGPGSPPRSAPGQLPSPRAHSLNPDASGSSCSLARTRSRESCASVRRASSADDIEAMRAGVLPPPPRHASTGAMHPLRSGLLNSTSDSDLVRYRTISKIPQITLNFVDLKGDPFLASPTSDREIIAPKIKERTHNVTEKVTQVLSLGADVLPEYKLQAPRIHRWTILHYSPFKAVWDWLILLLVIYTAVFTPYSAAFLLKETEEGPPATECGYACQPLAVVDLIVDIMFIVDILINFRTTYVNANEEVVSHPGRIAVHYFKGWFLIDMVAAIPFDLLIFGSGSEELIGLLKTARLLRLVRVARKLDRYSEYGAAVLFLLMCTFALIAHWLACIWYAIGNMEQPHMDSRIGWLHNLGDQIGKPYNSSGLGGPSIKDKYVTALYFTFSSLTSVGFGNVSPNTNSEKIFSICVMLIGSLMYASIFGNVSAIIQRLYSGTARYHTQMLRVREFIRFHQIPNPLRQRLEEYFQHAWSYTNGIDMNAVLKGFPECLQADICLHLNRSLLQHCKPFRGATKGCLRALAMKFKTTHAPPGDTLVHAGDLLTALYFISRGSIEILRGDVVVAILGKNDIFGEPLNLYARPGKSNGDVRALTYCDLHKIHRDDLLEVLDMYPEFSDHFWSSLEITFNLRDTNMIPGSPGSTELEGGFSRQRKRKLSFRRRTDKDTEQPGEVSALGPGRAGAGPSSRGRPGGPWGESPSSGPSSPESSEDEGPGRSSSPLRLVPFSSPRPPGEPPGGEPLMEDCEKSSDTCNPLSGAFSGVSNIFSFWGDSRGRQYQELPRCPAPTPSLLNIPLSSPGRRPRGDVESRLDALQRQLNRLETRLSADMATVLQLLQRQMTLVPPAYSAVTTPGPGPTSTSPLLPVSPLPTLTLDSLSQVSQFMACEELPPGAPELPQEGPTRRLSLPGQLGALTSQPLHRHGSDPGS
From the text: as §5

[4] = Caco-2, pH 6.5/7.4, tested concentration 10 μM

## CN(C(=O)Cn1ccnc1)C(c1ccccc1)c1ccc(I)cc1 (stereo not shown) [7n, 2-(1H-Imidazol-1-yl)-N-((4-iodophenyl)(phenyl)methyl)-N-methylacetamide]
HO-1 [1]
  HO-1 protein expression (in words): enhanced its levels
HO-1 [2]
  HO-1 protein expression (in words): enhanced its levels

## CN(C(=O)Cn1ccnc1)C(c1ccccc1)c1ccc(OCc2ccccc2)cc1 (stereo not shown) [7o, N-((4-(Benzyloxy)phenyl)(phenyl)methyl)-2-(1H-imidazol-1-yl)-N-methylacetamide]
A549 cells
  cell viability reduction (in words): weak effect
DU145 cells
  cell viability reduction (in words): had efficacies

## CN(C(=O)Cn1ccnc1)C(c1ccccc1)c1ccc(Cl)cc1 (stereo not shown) [7l, N-((4-Chlorophenyl)(phenyl)methyl)-2-(1H-imidazol-1-yl)-N-methylacetamide]
[3]; Caco-2, read-out: efflux ratio (Papp BA/Papp AB)
  efflux ratio at 10 μM: 0.44
[3]; [4]
  Papp A→B at 10 µM: 44.1 ×10⁻⁶ cm/s
  Papp B→A at 10 µM: 19.4 ×10⁻⁶ cm/s
Human CYP2D6
  IC50: 2500 nM
U87MG cells
  cell motility, wound-healing assay (in words): drastically reduced
H5V cells
  number of tube-like structures (in words): significantly decreased
HO
  HO enzymatic activity in cell lysates (in words): reduced HO activity
hERG potassium channel
  inhibition at 1 µM: 5.7%
HO-1 [2]
  HO-1 protein expression (in words): reduced HO-1 expression
